Source: article PMC3805035 (Proteins, 2010)

What was measured:
[1] = target: T1, M. tuberculosis Rv3377c (halimadienyl diphosphate synthase) (Mycobacterium tuberculosis, UniProt O50406); assay type: biochemical
T1 sequence (O50406 1-501): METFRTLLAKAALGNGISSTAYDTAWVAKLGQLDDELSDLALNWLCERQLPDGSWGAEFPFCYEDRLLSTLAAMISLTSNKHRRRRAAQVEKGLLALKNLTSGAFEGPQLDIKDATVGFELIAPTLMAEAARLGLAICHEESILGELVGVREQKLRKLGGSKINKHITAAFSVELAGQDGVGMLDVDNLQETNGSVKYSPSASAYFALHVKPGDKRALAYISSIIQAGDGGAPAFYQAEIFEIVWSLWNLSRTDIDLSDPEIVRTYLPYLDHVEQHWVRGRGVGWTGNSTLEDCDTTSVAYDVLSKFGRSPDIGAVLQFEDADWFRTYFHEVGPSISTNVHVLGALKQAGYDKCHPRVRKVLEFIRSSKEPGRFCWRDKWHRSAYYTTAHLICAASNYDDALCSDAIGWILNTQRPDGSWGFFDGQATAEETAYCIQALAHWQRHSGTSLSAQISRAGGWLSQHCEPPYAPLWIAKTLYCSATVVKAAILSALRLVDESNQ

[2] = target: T2, abietadiene synthase (AgABS) (Abies grandis, UniProt Q38710); assay type: biochemical
T2 sequence (Q38710 71-868): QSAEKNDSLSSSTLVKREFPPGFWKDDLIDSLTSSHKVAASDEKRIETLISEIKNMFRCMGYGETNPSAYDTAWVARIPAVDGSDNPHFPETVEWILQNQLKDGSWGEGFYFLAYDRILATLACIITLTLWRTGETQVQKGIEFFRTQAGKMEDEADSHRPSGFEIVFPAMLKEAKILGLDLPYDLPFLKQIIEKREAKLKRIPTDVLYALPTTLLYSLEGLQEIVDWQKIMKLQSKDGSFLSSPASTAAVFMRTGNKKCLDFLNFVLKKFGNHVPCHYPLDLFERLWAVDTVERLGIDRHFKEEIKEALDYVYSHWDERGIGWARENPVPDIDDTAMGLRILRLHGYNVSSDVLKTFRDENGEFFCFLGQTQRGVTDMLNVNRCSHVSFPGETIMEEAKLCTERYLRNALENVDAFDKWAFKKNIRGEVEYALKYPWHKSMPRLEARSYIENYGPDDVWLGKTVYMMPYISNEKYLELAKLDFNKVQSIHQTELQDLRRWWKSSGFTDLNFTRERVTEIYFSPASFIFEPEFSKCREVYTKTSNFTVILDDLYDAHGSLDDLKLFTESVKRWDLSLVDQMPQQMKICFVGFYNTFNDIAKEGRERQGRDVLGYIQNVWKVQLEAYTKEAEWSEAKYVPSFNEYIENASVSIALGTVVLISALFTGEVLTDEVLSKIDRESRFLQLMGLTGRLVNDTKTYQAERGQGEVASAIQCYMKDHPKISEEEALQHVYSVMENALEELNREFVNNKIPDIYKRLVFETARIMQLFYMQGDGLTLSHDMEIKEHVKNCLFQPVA

Row | SMILES | activity against the M. tuberculosis protein (Rv3377c) [1] | effect on ABS activity [2] | also measured
1 | O=P(O)(O)C(O)(Cn1ccnc1)P(=O)(O)O [zoledronate] | no activity | no effect | 
2 | C=CCN(C)CCCCCCCCCCCCCCCC(=O)OC [BPH-922] |  |  | IC50 [2]: 250 nM
3 | O=P(O)(O)C(O)(Cc1cnc2ccccn12)P(=O)(O)O [minodronate] | no activity | no effect | 
4 | C/C(=C\CC/C(C)=C/COP(=O)(O)OP(=O)(O)O)CC/C=C(\C)CCCN(C)C [15-aza-GGPP] |  |  | IC50 ([1]; read-out: Rv3377c inhibition (quantity not given)): 5 nM
5 | CC(C)=CCCC(C)=CCCC(C)=CCC(P(=O)(O)O)P(=O)(O)O [BPH-850, farnesylmethylene bisphosphonate] |  |  | comparison of IC50 using GGPP or CPP as substrate, ABS ([2]; GGPP versus CPP as substrate): about the same IC50
